In ChEMBL document CHEMBL4765389, “Antimicrobial and anti-inflammatory activities of short dodecapeptides derived from duck cathelicidin: Plausible mechanism of bactericidal action and endotoxin neutralization” (Eur J Med Chem, 2020):
Active and inactive are the calls of the source. No cut-off for these calls is given here.

Legend:
Bacillus subtilis = assay: Antibacterial activity against Bacillus subtilis KCTC 3068 assessed as reduction in bacterial growth incubated for 24 hrs by CLSI based broth dilution method; assay type: functional; conditions: read-out: MIC100
RAW264.7 [1] = assay: Antiinflammatory activity against mouse RAW264.7 cells assessed as reduction in LPS-induced TNFalpha level at 10 uM incubated for 24 hrs by […] relative to control; assay type: functional
Staphylococcus aureus [2] = assay: Antibacterial activity against Staphylococcus aureus KCTC 1621 assessed as reduction in bacterial growth incubated for 24 hrs in presence of 6 uM NH4Cl by CLSI based broth dilution method; assay type: functional; conditions: read-out: MIC100
Staphylococcus aureus [3] = assay: Antibacterial activity against Staphylococcus aureus KCTC 1621 assessed as reduction in bacterial growth incubated for 24 hrs in presence of 1 mM MgCl2 by CLSI based broth dilution method; assay type: functional; conditions: read-out: MIC100
Cell membrane [4] = assay: Induction of cell membrane permeability in Escherichia coli KCTC 1682 assessed as cytoplasmic membrane […] fluorescent signals at 2 times MIC measured after 1 hr by propidium iodide dye based flow cytometry analysis (reference value: 9.8 %); assay type: subcellular
[5] = Cytotoxicity against mouse RAW264.7 cells assessed as reduction in cell viability at 20 uM incubated for 24 hrs by MTT assay; assay type: cell-based; conditions: read-out: INH
[6] = Antibacterial activity against multidrug-resistant Pseudomonas aeruginosa CCARM 2095 assessed as fractional inhibitory concentration index incubated for 24 hrs in presence of chloramphenicol by CLSI based broth dilution method; assay type: functional
[7] = Drug uptake in Escherichia coli KCTC 1682 assessed as cytoplasmic accumulation at 2 times MIC incubated for 30 mins by confocal laser scanning microscopy; assay type: ADME; conditions: 0.5 h
RAW264.7 [8] = assay: Antiinflammatory activity against mouse RAW264.7 cells assessed as reduction in LPS-induced TNFalpha mRNA expression at 10 uM incubated for 3 hrs by qRT-PCR analysis; assay type: functional, cell-based
Cell membrane [9] = assay: Induction of cell membrane permeability in Staphylococcus aureus KCTC 1621 assessed as cytoplasmic membrane depolarization at 16 uM by SYTOX dye based fluorescence assay; assay type: subcellular
[10] = Antibacterial activity against multidrug-resistant Pseudomonas aeruginosa CCARM 2095 assessed as fractional inhibitory concentration incubated for 24 hrs in presence of ciprofloxacin by CLSI based broth dilution method; assay type: functional
Staphylococcus aureus [11] = assay: Antibacterial activity against Staphylococcus aureus KCTC 1621 assessed as reduction in bacterial growth incubated for 24 hrs in presence of 20 % serum by CLSI based broth dilution method; assay type: functional; conditions: read-out: MIC100
Candida albicans = assay: Antifungal activity against Candida albicans KCTC 7121 assessed as reduction in fungal growth incubated for 24 hrs by CLSI based broth dilution method; assay type: functional; conditions: read-out: MIC100
RAW264.7 [12] = assay: Antiinflammatory activity in mouse RAW264.7 cells assessed as suppression of LPS binding by measuring LPS-FITC aggregation at 10 uM pretreated with LPS for 1 hr followed by compound addition and measured after 30 mins by flowcytometry analysis (reference value: 67.93 %); assay type: functional; conditions: 0.5 h
[13] = Antibacterial activity against multidrug-resistant Pseudomonas aeruginosa CCARM 2095 assessed as reduction in bacterial growth incubated for 24 hrs in presence of chloramphenicol by CLSI based broth dilution method; assay type: functional; conditions: read-out: MIC100
Staphylococcus aureus [14] = assay: Antibacterial activity against methicillin-resistant Staphylococcus aureus CCARM 3090 assessed as fractional inhibitory concentration index incubated for 24 hrs in presence of ciprofloxacin by CLSI based broth dilution method; assay type: functional
Staphylococcus aureus [15] = assay: Antibacterial activity against methicillin-resistant Staphylococcus aureus CCARM 3090 assessed as fractional inhibitory concentration incubated for 24 hrs in presence of ciprofloxacin by CLSI based broth dilution method; assay type: functional
Escherichia coli [16] = assay: Antibacterial activity against Escherichia coli KCTC 1682 assessed as reduction in bacterial growth incubated for 24 hrs in presence of 4.5 mM KCl by CLSI based broth dilution method; assay type: functional; conditions: read-out: MIC100
[17] = Antibacterial activity against multidrug-resistant Pseudomonas aeruginosa CCARM 2095 assessed as fractional inhibitory concentration incubated for 24 hrs in presence of oxacillin by CLSI based broth dilution method; assay type: functional
Bacteria = assay: Antibacterial activity against Gram negative bacteria assessed as reduction in bacterial growth incubated for 24 hrs by CLSI based broth dilution method; assay type: functional; conditions: read-out: MIC100
[18] = Antibacterial activity against multidrug-resistant Pseudomonas aeruginosa CCARM 2095 assessed as fractional inhibitory concentration incubated for 24 hrs in presence of chloramphenicol by CLSI based broth dilution method; assay type: functional
Pseudomonas aeruginosa = assay: Antibacterial activity against Pseudomonas aeruginosa KCTC 1637 assessed as reduction in bacterial growth incubated for 24 hrs by CLSI based broth dilution method; assay type: functional; conditions: read-out: MIC100
Escherichia coli [19] = assay: Antibacterial activity against Escherichia coli KCTC 1682 assessed as reduction in bacterial growth incubated for 24 hrs in presence of 2.5 mM CaCl2 by CLSI based broth dilution method; assay type: functional; conditions: read-out: MIC100
Escherichia coli [20] = assay: Bacteriostatic activity against Escherichia coli KCTC 1682 assessed as reduction in colony forming unit at 0.5 times MIC measured for 24 hrs by time kill assay; assay type: functional
RAW264.7 [21] = assay: Antiinflammatory activity against mouse RAW264.7 cells assessed as reduction in LPS-induced nitrite level at 5 uM incubated for 24 hrs by Griess reagent based assay relative to control; assay type: functional
Staphylococcus aureus [22] = assay: Antibacterial activity against Staphylococcus aureus KCTC 1621 assessed as reduction in bacterial growth incubated for 24 hrs in presence of 4.5 mM KCl by CLSI based broth dilution method; assay type: functional; conditions: read-out: MIC100
[23] = Antibacterial activity against multidrug-resistant Pseudomonas aeruginosa CCARM 2095 assessed as fractional inhibitory concentration index incubated for 24 hrs in presence of ciprofloxacin by CLSI based broth dilution method; assay type: functional
[24] = Retention time of the compound by RP-HPLC method; assay type: physicochemical
Erythrocyte = assay: Hemolytic activity in sheep RBC assessed as reduction in hemoglobin at 256 uM incubated for 1 hr; assay type: ADME, cell-based, Ovis aries
Staphylococcus aureus [25] = assay: Antibacterial activity against methicillin-resistant Staphylococcus aureus CCARM 3090 assessed as reduction in bacterial growth incubated for 24 hrs in presence of oxacillin by CLSI based broth dilution method; assay type: functional; conditions: read-out: MIC100
[26] = Antibacterial activity against multidrug-resistant Pseudomonas aeruginosa CCARM 2095 assessed as reduction in bacterial growth incubated for 24 hrs in presence of oxacillin by CLSI based broth dilution method; assay type: functional; conditions: read-out: MIC100
[27] = Therapeutic index, ratio of HC10 for sheep RBC to geometric mean MIC for gram negative bacteria; assay type: toxicity; conditions: sheep red blood cells, read-out: TI
Staphylococcus aureus [28] = assay: Antibacterial activity against methicillin-resistant Staphylococcus aureus CCARM 3089 assessed as reduction in bacterial growth incubated for 24 hrs by CLSI based broth dilution method; assay type: functional; conditions: read-out: MIC100
Staphylococcus aureus [29] = assay: Antibacterial activity against methicillin-resistant Staphylococcus aureus CCARM 3090 assessed as fractional inhibitory concentration incubated for 24 hrs in presence of oxacillin by CLSI based broth dilution method; assay type: functional
Staphylococcus aureus [30] = assay: Antibacterial activity against methicillin-resistant Staphylococcus aureus CCARM 3090 assessed as reduction in bacterial growth incubated for 24 hrs in presence of chloramphenicol by CLSI based broth dilution method; assay type: functional; conditions: read-out: MIC100
Lipopolysaccharide (LPS) = assay: Displacement of BODIPY-TR cadaverine from Escherichia coli O111:B4 LPS at 20 uM measured for 100 sec by spectrofluorometry relative to control

Row | Substance | MIC (Bacillus subtilis) [µM] | inhibition at 10 µM (RAW264.7 [1]) [%] | MIC (Staphylococcus aureus [2]) [µM] | MIC (Staphylococcus aureus [3]) [µM] | Activity (Cell membrane [4]) [%] | cytotoxicity at 24 h, 20 µM [5] [%] | fractional inhibitory concentration index (FICI) [6] | Drug uptake [7] | inhibition (RAW264.7 [8]) | Activity (Cell membrane [9]) | FIC [10] | MIC (Staphylococcus aureus [11]) [µM] | MIC (Candida albicans) [µM] | Activity (RAW264.7 [12]) [%] | MIC [13] [µM] | fractional inhibitory concentration index (FICI) (Staphylococcus aureus [14]) | FIC (Staphylococcus aureus [15]) | MIC (Escherichia coli [16]) [µM] | FIC [17] | MIC (Bacteria) [µM] | also measured
1 | H-LWKKIYRKWKRW-NH2 | 2 | 65 | 2 | 4 | 6.31 | < 10 | 0.375 | Active | Active | inactive | 0.125 | 4 | 4 | 17.64 | 128 | 0.375 | 0.125 | 4 | 0.125 | 4 | FIC [18]: 0.125; MIC (Pseudomonas aeruginosa): 2 µM; MIC (Escherichia coli [19]): 4 µM; Activity (Escherichia coli [20]): 3 log10CFU/ml; inhibition at 5 µM (RAW264.7 [21]): 91.6%; MIC (Staphylococcus aureus [22]): 4 µM; fractional inhibitory concentration index (FICI) [23]: 0.375; Retention_time [24]: 17.3 min; Activity (Erythrocyte): Non-Toxic; MIC (Staphylococcus aureus [25]): 64 µM; MIC [26]: 64 µM; selectivity ratio [27]: 128; MIC (Staphylococcus aureus [28]): 16 µM; FIC (Staphylococcus aureus [29]): 0.125; MIC (Staphylococcus aureus [30]): 32 µM
2 | H-LIKKIYRKWKRW-NH2 | 2 | 47.3 | 8 | 4 | 9.53 | < 10 | 0.313 | Active | Active | inactive | 0.125 | 4 | 4 | 32.51 | 64 | 0.5 | 0.25 | 2 | 0.125 | 5.6 | Activity (Lipopolysaccharide (LPS)): 68%; FIC [18]: 0.0625; MIC (Pseudomonas aeruginosa): 2 µM; MIC (Escherichia coli [19]): 8 µM; Activity (Escherichia coli [20]): 3 log10CFU/ml; inhibition at 5 µM (RAW264.7 [21]): 51.4%; MIC (Staphylococcus aureus [22]): 4 µM; fractional inhibitory concentration index (FICI) [23]: 0.375; Retention_time [24]: 16.2 min; Activity (Erythrocyte): Non-Toxic; MIC (Staphylococcus aureus [25]): 64 µM; MIC [26]: 64 µM; selectivity ratio [27]: 91.4; MIC (Staphylococcus aureus [28]): 16 µM; FIC (Staphylococcus aureus [29]): 0.125; MIC (Staphylococcus aureus [30]): 32 µM
